Results taken from PubChem BioAssay AID1919017 (Molecular Pharmacology Branch, DTP, NCI, 2023).

Tested on: SW1271 complex spheroids with HUVEC/MSC, growth, % test/control
Assay: Anticancer human tumor SW1271 cell line growth inhibition [AhR];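 note: spheroids exposed to agents for 7 days before readout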
Settings: for IC50: curve of first compound; for viability, T/C: stronger effect = lower value
Outline: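 Agents were dosed in half-log steps down from roughly clinical Cmax, or from 10 microM where Cmax was unknown, alone and with AhR antagonists. Read-out: percent test/control growth of tumor spheroids containing HUVEC and MSC stromal cells.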

[1] = second compound 0.1 µM, first compound 0.0316 µM
[2] = second compound 0.1 µM, first compound 0.1 µM
[3] = second compound 0.1 µM, first compound 0.316 µM
[4] = second compound 0.1 µM, first compound 1 µM
[5] = second compound 0.1 µM, first compound 3.16 µM
[6] = second compound 0.1 µM, first compound 10 µM
[7] = second compound 0.316 µM, first compound 0.0316 µM
[8] = second compound 0.316 µM, first compound 0.1 µM
[9] = second compound 0.316 µM, first compound 0.316 µM
[10] = second compound 0.316 µM, first compound 1 µM
[11] = second compound 0.316 µM, first compound 3.16 µM
[12] = second compound 0.316 µM, first compound 10 µM
[13] = second compound 1 µM, first compound 0.0316 µM
[14] = second compound 1 µM, first compound 0.1 µM
[15] = second compound 1 µM, first compound 0.316 µM
[16] = second compound 1 µM, first compound 1 µM
[17] = second compound 1 µM, first compound 3.16 µM
[18] = second compound 1 µM, first compound 10 µM
[19] = second compound 3.16 µM, first compound 0.0316 µM
[20] = second compound 3.16 µM, first compound 0.1 µM
[21] = second compound 3.16 µM, first compound 0.316 µM
[22] = second compound 3.16 µM, first compound 1 µM
[23] = second compound 3.16 µM, first compound 3.16 µM
[24] = second compound 3.16 µM, first compound 10 µM
[25] = second compound 10 µM, first compound 0.0316 µM
[26] = second compound 10 µM, first compound 0.1 µM
[27] = second compound 10 µM, first compound 0.316 µM
[28] = second compound 10 µM, first compound 1 µM
[29] = second compound 10 µM, first compound 3.16 µM
[30] = second compound 10 µM, first compound 10 µM
[31] = second compound 0.1 µM, first compound 0.00316 µM
[32] = second compound 0.1 µM, first compound 0.01 µM
[33] = second compound 0.316 µM, first compound 0.00316 µM
[34] = second compound 0.316 µM, first compound 0.01 µM
[35] = second compound 1 µM, first compound 0.00316 µM
[36] = second compound 1 µM, first compound 0.01 µM
[37] = second compound 3.16 µM, first compound 0.00316 µM
[38] = second compound 3.16 µM, first compound 0.01 µM
[39] = second compound 10 µM, first compound 0.00316 µM
[40] = second compound 10 µM, first compound 0.01 µM

Compound | IC50 (second compound 0.1 µM) | IC50 (second compound 0.316 µM) | IC50 (second compound 1 µM) | IC50 (second compound 3.16 µM) | IC50 (second compound 10 µM) | viability, T/C [1] | viability, T/C [2] | viability, T/C [3] | viability, T/C [4] | viability, T/C [7] | viability, T/C [8] | viability, T/C [9] | viability, T/C [10] | viability, T/C [13] | viability, T/C [14] | viability, T/C [15] | viability, T/C [19] | viability, T/C [20] | viability, T/C [25] | viability, T/C [26] | also measured
CC(C)c1c(-c2ccccc2)nc2c(C#N)c[nH]n2c1=O + Cc1ccccc1N=Nc1ccc(NC(=O)c2ccnn2C)c(C)c1 | > 10000 nM | > 10000 nM | > 10000 nM | > 10000 nM | > 10000 nM | 99.6% | 85.9% | 94.9% | 78% | 102% | 110% | 112% | 107% | 90.5% | 97.6% | 91% | 93.3% | 88.3% | 76.5% | 88.5% | viability, T/C [5]: 102%; viability, T/C [6]: 102%; viability, T/C [11]: 85.3%; viability, T/C [12]: 77.3%; viability, T/C [16]: 113%; viability, T/C [17]: 107%; viability, T/C [18]: 94.4%; viability, T/C [21]: 130%; viability, T/C [22]: 109%; viability, T/C [23]: 119%; viability, T/C [24]: 101%; viability, T/C [27]: 108%; viability, T/C [28]: 113%; viability, T/C [29]: 88.2%; viability, T/C [30]: 87.6%
CC[C@@]1(O)C(=O)OCc2c1cc1n(c2=O)Cc2cc3c(CN(C)C)c(O)ccc3nc2-1 + Cc1cncc(-c2nc(NCCc3c[nH]c4ccccc34)c3ncn(C(C)C)c3n2)c1 | > 100 nM | > 100 nM | > 100 nM | > 100 nM | 11.9 nM | 105% | 91% | – | – | 102% | 67% | – | – | 77.4% | 80.2% | – | 96% | 78% | 45% | 37.1% | viability, T/C (second compound 0.1 µM, first compound 0.000316 µM): 85.2%; viability, T/C (second compound 0.1 µM, first compound 0.001 µM): 99.7%; viability, T/C [31]: 124%; viability, T/C [32]: 84.9%; viability, T/C (second compound 0.316 µM, first compound 0.000316 µM): 93.5%; viability, T/C (second compound 0.316 µM, first compound 0.001 µM): 114%; viability, T/C [33]: 108%; viability, T/C [34]: 94.3%; viability, T/C (second compound 1 µM, first compound 0.000316 µM): 100%; viability, T/C (second compound 1 µM, first compound 0.001 µM): 118%; viability, T/C [35]: 108%; viability, T/C [36]: 88.9%; viability, T/C (second compound 3.16 µM, first compound 0.000316 µM): 95.2%; viability, T/C (second compound 3.16 µM, first compound 0.001 µM): 109%; viability, T/C [37]: 106%; viability, T/C [38]: 86.5%; viability, T/C (second compound 10 µM, first compound 0.000316 µM): 66.1%; viability, T/C (second compound 10 µM, first compound 0.001 µM): 62.2%; viability, T/C [39]: 52%; viability, T/C [40]: 54.5%
COc1cc(C2c3cc4c(cc3C(OC3OC5COC(C)OC5C(O)C3O)C3COC(=O)C23)OCO4)cc(OC)c1O (stereo not given) + Cc1cncc(-c2nc(NCCc3c[nH]c4ccccc34)c3ncn(C(C)C)c3n2)c1 | > 10000 nM | > 10000 nM | > 10000 nM | > 10000 nM | < 31.6 nM | 81.6% | 88.5% | 68.1% | 60.7% | 86.1% | 86.3% | 67.4% | 53.8% | 96.2% | 80.1% | 79.2% | 89.8% | 99.2% | 41.5% | 39.6% | viability, T/C [5]: 63.6%; viability, T/C [6]: 65.3%; viability, T/C [11]: 66.1%; viability, T/C [12]: 53.4%; viability, T/C [16]: 80.9%; viability, T/C [17]: 55.9%; viability, T/C [18]: 72%; viability, T/C [21]: 112%; viability, T/C [22]: 76.2%; viability, T/C [23]: 72.4%; viability, T/C [24]: 70.6%; viability, T/C [27]: 41%; viability, T/C [28]: 35.4%; viability, T/C [29]: 32.6%; viability, T/C [30]: 29.1%
COc1cccc2c1C(=O)c1c(O)c3c(c(O)c1C2=O)CC(O)(C(=O)CO)CC3OC1CC(N)C(O)C(C)O1 (stereo not given) + Cc1cncc(-c2nc(NCCc3c[nH]c4ccccc34)c3ncn(C(C)C)c3n2)c1 | 332 nM | 280 nM | 380 nM | 258 nM | < 31.6 nM | 74% | 79.5% | 51.9% | 6.7% | 81.5% | 72.4% | 47.1% | 2.96% | 89.5% | 89% | 58.8% | 95% | 77.8% | 48% | 38.4% | viability, T/C [5]: 3.78%; viability, T/C [6]: 5.75%; viability, T/C [11]: 3.17%; viability, T/C [12]: 6.88%; viability, T/C [16]: 1.94%; viability, T/C [17]: 4.32%; viability, T/C [18]: 4.87%; viability, T/C [21]: 46.4%; viability, T/C [22]: 1.86%; viability, T/C [23]: 5.28%; viability, T/C [24]: 7.13%; viability, T/C [27]: 24.3%; viability, T/C [28]: 3.36%; viability, T/C [29]: 9.24%; viability, T/C [30]: 7.74%
Nc1ccn(C2OC(CO)C(O)C2(F)F)c(=O)n1 (stereo not given) + Cc1cncc(-c2nc(NCCc3c[nH]c4ccccc34)c3ncn(C(C)C)c3n2)c1 | > 10000 nM | > 10000 nM | > 10000 nM | > 10000 nM | < 31.6 nM | 75.4% | 97.1% | 67% | 64% | 60.5% | 65.8% | 68% | 64.3% | 74.2% | 72.8% | 85.4% | 81.1% | 78.6% | 39.5% | 38.2% | viability, T/C [5]: 62.7%; viability, T/C [6]: 54.6%; viability, T/C [11]: 66.9%; viability, T/C [12]: 56.8%; viability, T/C [16]: 65%; viability, T/C [17]: 67.8%; viability, T/C [18]: 58.4%; viability, T/C [21]: 103%; viability, T/C [22]: 65%; viability, T/C [23]: 81.8%; viability, T/C [24]: 75.2%; viability, T/C [27]: 39.3%; viability, T/C [28]: 36.7%; viability, T/C [29]: 37.8%; viability, T/C [30]: 30.6%
Nc1ncn(C2CC(O)C(CO)O2)c(=O)n1 (stereo not given) + Cc1cncc(-c2nc(NCCc3c[nH]c4ccccc34)c3ncn(C(C)C)c3n2)c1 | > 1000 nM | > 1000 nM | > 1000 nM | > 1000 nM | 307 nM | 104% | 87% | 83.1% | 83.8% | 111% | 83.4% | 76.3% | 95.1% | 107% | 77.3% | 111% | 87.9% | 104% | 51% | 53% | viability, T/C [31]: 107%; viability, T/C [32]: 123%; viability, T/C [33]: 105%; viability, T/C [34]: 92.6%; viability, T/C [35]: 88.1%; viability, T/C [36]: 90.5%; viability, T/C [16]: 84%; viability, T/C [37]: 97.4%; viability, T/C [38]: 103%; viability, T/C [21]: 90%; viability, T/C [22]: 110%; viability, T/C [39]: 52.4%; viability, T/C [40]: 54.8%; viability, T/C [27]: 48.9%; viability, T/C [28]: 47.5%
